Reference: PubChem BioAssay AID256 (DTP/NCI, 2004)
Values joined by “and” are separate entries in the source; they are usually repeats but may differ in a detail not shown here. Equal values may be shown once. Toxic doses and inconclusive results are not listed.

System: CD2F1 mice, L1210 leukemia ip, survival T/C
Experiment: NCI In Vivo Anticancer Drug Screen. Data for tumor model L1210 Leukemia (intraperitoneal) in CD2F1 (CDF1) mice
Settings: higher = longer survival
Method in brief: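 Compound-dosed mice with transplantable tumor versus matched vehicle controls; endpoint ratio T/C reported.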

[1] = endpoint: mean survival time, dose: 50.0 mg/kg/injection, schedule: Q01DX009 (ip), vehicle: Klucel (hydroxypropylcellulose) (HPC)
[2] = endpoint: mean survival time, dose: 100.0 mg/kg/injection, schedule: Q01DX009 (ip), vehicle: Klucel (hydroxypropylcellulose) (HPC)
[3] = endpoint: mean survival time, dose: 200.0 mg/kg/injection, schedule: Q01DX009 (ip), vehicle: Klucel (hydroxypropylcellulose) (HPC)
[4] = endpoint: mean survival time, dose: 100.0 mg/kg/injection, schedule: Q04DX003 (ip), vehicle: saline with Tween-80
[5] = endpoint: mean survival time, dose: 200.0 mg/kg/injection, schedule: Q04DX003 (ip), vehicle: saline with Tween-80
[6] = endpoint: mean survival time, dose: 400.0 mg/kg/injection, schedule: Q04DX003 (ip), vehicle: saline with Tween-80

Nc1nc(Br)nc2c1ncn2C1CC(O)C(CO)O1 (configuration not stated)
T/C (endpoint: median survival time, dose: 3.8 mg/kg/injection, schedule: Q03HX009 (ip), vehicle: saline): 120 % of control | T/C (endpoint: median survival time, dose: 10.0 mg/kg/injection, schedule: Q03HX024 (ip), vehicle: saline): 152 % of control | T/C (endpoint: median survival time, dose: 15.0 mg/kg/injection, schedule: Q03HX009 (ip), vehicle: water): 163 % of control | T/C (endpoint: median survival time, dose: 20.0 mg/kg/injection, schedule: Q03HX024 (ip), vehicle: saline): 164 % of control and 174 % of control | T/C (endpoint: median survival time, dose: 30.0 mg/kg/injection, schedule: Q03HX009 (ip), vehicle: suspension in saline): 195 % of control | T/C (endpoint: median survival time, dose: 30.0 mg/kg/injection, schedule: Q03HX009 (ip), vehicle: water): 237 % of control | T/C (endpoint: median survival time, dose: 30.0 mg/kg/injection, schedule: Q03HX024 (ip), vehicle: saline): 329 % of control | T/C (endpoint: median survival time, dose: 40.0 mg/kg/injection, schedule: Q03HX024 (ip), vehicle: saline): 728 % of control | T/C (endpoint: median survival time, dose: 53.0 mg/kg/injection, schedule: Q03DX003 (ip), vehicle: saline): 121 % of control | T/C (endpoint: median survival time, dose: 60.0 mg/kg/injection, schedule: Q03HX009 (ip), vehicle: suspension in saline): 243 % of control | T/C (endpoint: median survival time, dose: 60.0 mg/kg/injection, schedule: Q03HX009 (ip), vehicle: water): 221 % of control | T/C (endpoint: median survival time, dose: 80.0 mg/kg/injection, schedule: Q03DX003 (ip), vehicle: saline): 118 % of control | T/C (endpoint: median survival time, dose: 120.0 mg/kg/injection, schedule: Q03DX003 (ip), vehicle: saline): 122 % of control | T/C (endpoint: median survival time, dose: 120.0 mg/kg/injection, schedule: Q03HX009 (ip), vehicle: suspension in saline): 193 % of control

CC(C)NC(=O)NO
T/C (endpoint: mean survival time, dose: 4.0 mg/kg/injection, schedule: Q03HX024 (ip), vehicle: saline): 95 % of control | T/C (endpoint: mean survival time, dose: 8.0 mg/kg/injection, schedule: Q03HX024 (ip), vehicle: saline): 98 % of control | T/C (endpoint: mean survival time, dose: 16.0 mg/kg/injection, schedule: Q03HX024 (ip), vehicle: saline): 103 % of control | T/C (endpoint: mean survival time, dose: 32.0 mg/kg/injection, schedule: Q03HX024 (ip), vehicle: saline): 98 % of control | T/C (endpoint: mean survival time, dose: 62.0 mg/kg/injection, schedule: Q03HX024 (ip), vehicle: saline with Tween-80): 87 % of control | T/C (endpoint: mean survival time, dose: 64.0 mg/kg/injection, schedule: Q03HX024 (ip), vehicle: saline): 98 % of control

CCC[CH2][Pb]([CH2]CCC)([CH2]CCC)[O]C(C)=O
T/C (endpoint: mean survival time, dose: 2.5 mg/kg/injection, schedule: Q01DX001 (ip), vehicle: other): 96 % of control | T/C (endpoint: mean survival time, dose: 5.0 mg/kg/injection, schedule: Q01DX001 (ip), vehicle: other): 115 % of control | T/C (endpoint: mean survival time, dose: 10.0 mg/kg/injection, schedule: Q01DX001 (ip), vehicle: other): 93 % of control | T/C (endpoint: mean survival time, dose: 25.0 mg/kg/injection, schedule: Q04DX003 (ip), vehicle: saline with Tween-80): 95 % of control | T/C (endpoint: mean survival time, dose: 50.0 mg/kg/injection, schedule: Q04DX003 (ip), vehicle: saline with Tween-80): 87 % of control

O=C(O)C1(NO)CCCCC1
T/C (endpoint: mean survival time, dose: 12.5 mg/kg/injection, schedule: Q01DX009 (ip), vehicle: Klucel (hydroxypropylcellulose) (HPC)): 102 % of control | T/C (endpoint: mean survival time, dose: 25.0 mg/kg/injection, schedule: Q01DX009 (ip), vehicle: Klucel (hydroxypropylcellulose) (HPC)): 101 % of control | T/C [1]: 103 % of control | T/C [2]: 100 % of control | T/C [3]: 97 % of control | T/C (endpoint: mean survival time, dose: 400.0 mg/kg/injection, schedule: Q01DX009 (ip), vehicle: Klucel (hydroxypropylcellulose) (HPC)): 102 % of control

CC(=O)OCC1OC2OC(C)(OC(C)(C)C)OC2C(OC(C)=O)C1OC(C)=O (configuration not stated)
T/C (endpoint: mean survival time, dose: 12.5 mg/kg/injection, schedule: Q01DX009 (ip), vehicle: other): 97 % of control | T/C (endpoint: mean survival time, dose: 25.0 mg/kg/injection, schedule: Q01DX009 (ip), vehicle: other): 95 % of control | T/C (endpoint: mean survival time, dose: 50.0 mg/kg/injection, schedule: Q01DX009 (ip), vehicle: other): 97 % of control | T/C (endpoint: mean survival time, dose: 100.0 mg/kg/injection, schedule: Q01DX009 (ip), vehicle: other): 103 % of control | T/C (endpoint: mean survival time, dose: 200.0 mg/kg/injection, schedule: Q01DX009 (ip), vehicle: other): 98 % of control

CC(=O)Oc1ccc2c3c(ccc2c1)C1CCC(=O)C1(C)CC3 (configuration not stated)
T/C [4]: 97 % of control | T/C [5]: 92 % of control | T/C [6]: 97 % of control

CCCCN1C(=O)C=CC1=O
T/C (endpoint: mean survival time, dose: 0.78 mg/kg/injection, schedule: Q01DX009 (ip), vehicle: saline with Tween-80): 94 % of control | T/C (endpoint: mean survival time, dose: 1.56 mg/kg/injection, schedule: Q01DX009 (ip), vehicle: saline with Tween-80): 105 % of control | T/C (endpoint: mean survival time, dose: 3.12 mg/kg/injection, schedule: Q01DX009 (ip), vehicle: saline with Tween-80): 91 % of control

c1ccc(Cc2ccccn2)cc1
T/C (endpoint: mean survival time, dose: 100.0 mg/kg/injection, schedule: Q04DX003 (ip), vehicle: water): 93 % of control | T/C (endpoint: mean survival time, dose: 200.0 mg/kg/injection, schedule: Q04DX003 (ip), vehicle: water): 101 % of control | T/C (endpoint: mean survival time, dose: 400.0 mg/kg/injection, schedule: Q04DX003 (ip), vehicle: water): 104 % of control

Cc1cccc(C)c1NC(=O)c1ccccc1Cl
T/C [4]: 98 % of control | T/C [5]: 97 % of control | T/C [6]: 89 % of control

Nc1ccccc1SC(CC(=O)c1ccccc1)c1ccc2c(c1)OCO2 (configuration not stated)
T/C (endpoint: mean survival time, dose: 100.0 mg/kg/injection, schedule: Q01DX009 (ip), vehicle: saline with Tween-80): 95 % of control | T/C (endpoint: mean survival time, dose: 200.0 mg/kg/injection, schedule: Q01DX009 (ip), vehicle: saline with Tween-80): 93 % of control | T/C (endpoint: mean survival time, dose: 400.0 mg/kg/injection, schedule: Q01DX009 (ip), vehicle: saline with Tween-80): 100 % of control

Cn1ccc(=Nc2ccc(NC(=O)c3ccc(N=c4ccn(C)c5ccc([N+](=O)[O-])cc45)cc3)cc2)cc1
T/C (endpoint: mean survival time, dose: 1.56 mg/kg/injection, schedule: Q01DX009 (ip), vehicle: water): 106 % of control | T/C (endpoint: mean survival time, dose: 3.13 mg/kg/injection, schedule: Q01DX009 (ip), vehicle: water): 112 % of control | T/C (endpoint: mean survival time, dose: 6.25 mg/kg/injection, schedule: Q01DX009 (ip), vehicle: water): 124 % of control | T/C (endpoint: mean survival time, dose: 12.5 mg/kg/injection, schedule: Q01DX009 (ip), vehicle: water): 181 % of control | T/C (endpoint: mean survival time, dose: 25.0 mg/kg/injection, schedule: Q01DX009 (ip), vehicle: water): 227 % of control

Cc1cc(C)c(O)c(C)c1.[Hg]
T/C (endpoint: mean survival time, dose: 1.56 mg/kg/injection, schedule: Q01DX001 (ip), vehicle: Klucel (hydroxypropylcellulose) (HPC)): 98 % of control | T/C (endpoint: mean survival time, dose: 3.13 mg/kg/injection, schedule: Q01DX001 (ip), vehicle: Klucel (hydroxypropylcellulose) (HPC)): 92 % of control | T/C (endpoint: mean survival time, dose: 6.25 mg/kg/injection, schedule: Q01DX001 (ip), vehicle: Klucel (hydroxypropylcellulose) (HPC)): 103 % of control

c1ccc(C(c2ccccc2)C(c2ccccc2)c2ccccc2)cc1
T/C (endpoint: mean survival time, dose: 18.7 mg/kg/injection, schedule: Q01DX009 (ip), vehicle: saline with Tween-80): 89 % of control | T/C (endpoint: mean survival time, dose: 37.5 mg/kg/injection, schedule: Q01DX009 (ip), vehicle: saline with Tween-80): 89 % of control

Cn1c(CC(O)(C(F)(F)F)C(F)(F)F)c(C(O)(C(F)(F)F)C(F)(F)F)c2ccccc21
T/C (endpoint: mean survival time, dose: 5.0 mg/kg/injection, schedule: Q04DX003 (ip), vehicle: saline with Tween-80): 101 % of control | T/C (endpoint: mean survival time, dose: 10.0 mg/kg/injection, schedule: Q04DX003 (ip), vehicle: saline with Tween-80): 90 % of control | T/C (endpoint: mean survival time, dose: 20.0 mg/kg/injection, schedule: Q04DX003 (ip), vehicle: saline with Tween-80): 90 % of control

CC(Cl)CN(CC(C)Cl)c1ccc(N=Nc2ccccc2)cc1 (configuration not stated)
T/C [1]: 100 % of control | T/C [2]: 106 % of control | T/C [3]: 90 % of control

CCCCNC(C)(C)C(SSSC(c1ccco1)C(C)(C)NCCCC)c1ccco1 (configuration not stated)
T/C (endpoint: mean survival time, dose: 12.5 mg/kg/injection, schedule: Q01DX009 (ip), vehicle: saline with Tween-80): 102 % of control | T/C (endpoint: mean survival time, dose: 25.0 mg/kg/injection, schedule: Q01DX009 (ip), vehicle: saline with Tween-80): 96 % of control | T/C (endpoint: mean survival time, dose: 50.0 mg/kg/injection, schedule: Q01DX009 (ip), vehicle: saline with Tween-80): 98 % of control

C/C=C(\C)C(=O)N/N=C\c1cc(Cl)cc(Cl)c1O
T/C (endpoint: mean survival time, dose: 12.5 mg/kg/injection, schedule: Q01DX009 (ip), vehicle: olive oil, sesame oil, peanut oil): 100 % of control | T/C (endpoint: mean survival time, dose: 25.0 mg/kg/injection, schedule: Q01DX009 (ip), vehicle: olive oil, sesame oil, peanut oil): 96 % of control | T/C (endpoint: mean survival time, dose: 50.0 mg/kg/injection, schedule: Q01DX009 (ip), vehicle: olive oil, sesame oil, peanut oil): 94 % of control | T/C (endpoint: mean survival time, dose: 100.0 mg/kg/injection, schedule: Q01DX009 (ip), vehicle: olive oil, sesame oil, peanut oil): 98 % of control | T/C (endpoint: mean survival time, dose: 200.0 mg/kg/injection, schedule: Q01DX009 (ip), vehicle: olive oil, sesame oil, peanut oil): 98 % of control | T/C (endpoint: mean survival time, dose: 400.0 mg/kg/injection, schedule: Q01DX009 (ip), vehicle: olive oil, sesame oil, peanut oil): 100 % of control

C=CCN(CC=C)/N=N/c1nc[nH]c1C(N)=O
T/C [4]: 98 % of control | T/C [5]: 105 % of control | T/C [6]: 100 % of control

O=C(Nc1ccc(F)cc1)Nc1cccc2ccccc12
T/C [4]: 96 % of control | T/C [5]: 96 % of control | T/C [6]: 111 % of control
